Experimental data from patent publication US5011825A, “Peptides influencing diuresis and natriuresis, a process for their preparation, agents containing them, and their use” (Hoechst Aktiengesellschaft, priority 1986, dated 1991).
Where a SMILES comes first, the peptide text is derived from it. [ ]: non-standard residue; d: D form. The star is where a group is joined. d(aIle) = CC[C@H](C)[C@@H](N)C(=O)O; Leu(ol) = CC(C)C[C@H](N)CO; code Z = not defined here; Cbz = O=C(OCc1ccccc1)*; OBn = c1ccc(CO*)cc1; OtBu = CC(C)(C)O*; tBu = CC(C)(C)*

Tests used:
[1] = test system: rat; test: Diuretic, natriuretic and kaliuretic action, Experimental Design 2 (anesthetized rats, stepwise halved NaCl infusion, i.v. bolus); type: in vivo; details: dose 1 mg/kg rat i.v. bolus, collection period 120 min; for Urine: control 0.520; for K^+: control 25.8; for Na^+: control 31.5
Protocol: B. Diuretic, natruiuretic and kaliuretic action of the peptides according to the invention in Experimental Design 2 (dose: 1 mg/kg rat, colection period: 120 min.)
Experimental Design 2: The rats were anesthetized with 0.1 ml of 10% strength thiobutabarbital sodium/100 g of body weight i.p. They received an NaCl infusion from 60 min before administration of the substance up to administration of the substance (2.5 ml of a 0.85% strength NaCl solution .h^-1.0.1 kg^-1 body weight). After ad
ministration of the substance, the infusion rate was halved for one hour (1.25 ml.h^-1.0.1 kg^-1) Thereafter the infusion rate was again halved up to the end of the experiment (0.625 ml.h^1.0.1 kg^-1). The test substance was administered as i.v. bolus in 0.1 ml of a 0.85% strength NaCl solution/100 g of body weight.

[2] = test system: rat; test: Diuretic, natriuretic and kaliuretic action, Experimental Design 1 (anesthetized rats, continuous NaCl infusion, i.v. bolus); type: in vivo; details: for Urine / K^+ / Na^+: collection period 90 min; for Urine: control 1.267; for K^+: control 29.5; for Na^+: control 65.2; for Type of action on diuresis, natriuresis and kaliuresis (in words): judged from the data against control
Protocol: A. […]
Experimental Design 1: The rats were anesthetized with 0.1 ml of 10% strength thiobutabarbital sodium/100 g of body weight i.p. They received an NaCl infusion from 60 min before administration of the substance and continuing during the experiment (2.5 ml of a 0.9% strength NaCl solution .h^-1.0.1 kg^-1 body weight). The test substance was administered as an i.v. bolus in 0.5 ml of a 0.9% strength solution/100 g of body weight.

Molecule | Urine [1] [mL/kg] | K^+ [1] [µmol/kg] | Na^+ [1] [µmol/kg] | also measured
CC[C@H](C)[C@H](NC(=O)[C@H](CCCNC(=N)N)NC(=O)[C@H](CC(C)C)NC(=O)[C@H](NC(=O)[C@@H](N)CCCNC(=N)N)C(C)C)C(=O)O [H-Arg-D-Val-Leu-Arg-Ile-OH] (H-R[dV]LRI-OH) | 0.57 | 34.9 | 83.77 | –
CC[C@H](C)[C@H](NC(=O)[C@@H](N)CCCNC(=N)N)C(=O)N[C@H](CC(C)C)C(=O)N[C@@H](CCCNC(=N)N)C(=O)N[C@@H](C(=O)O)C(C)C [H-Arg-Ile-D-Leu-Arg-D-Val-OH] (H-RI[dL]R[dV]-OH) | 0.31 | 32.8 | 68.4 | –
CC[C@H](C)[C@H](NC(=O)[C@H](CCCNC(=N)N)NC(=O)[C@@H](COC(C)(C)C)NC(=O)[C@@H](NC(=O)[C@@H](N)CCCNC(=N)N)[C@@H](C)CC)C(=O)O [H-Arg-Ile-D-Ser(tBu)-Arg-Ile-OH] (H-RI[dS](tBu)RI-OH) | – | – | – | Urine ([2]; dose 1 mg/kg rat i.v. bolus): 0.95 mL/kg; K^+ ([2]; dose 1 mg/kg rat i.v. bolus): 44.3 µmol/kg; Na^+ ([2]; dose 1 mg/kg rat i.v. bolus): 87.0 µmol/kg
CC[C@H](C)[C@H](NC(=O)[C@@H](N)CCCNC(=N)N)C(=O)N[C@@H](CC(C)C)C(=O)N[C@@H](CCCNC(=N)N)C(=O)N[C@@H](C(=O)O)C(C)C [H-Arg-Ile-Leu-Arg-D-Val-OH] (H-RILR[dV]-OH) | 0.56 | 38.9 | 68.8 | –
CC[C@H](C)[C@H](NC(=O)[C@@H](CCCNC(=N)N)NC(=O)[C@H](CC(C)C)NC(=O)[C@@H](NC(=O)[C@@H](N)CCCNC(=N)N)[C@@H](C)CC)C(=O)O [H-Arg-Ile-Leu-D-Arg-Ile-OH] (H-RIL[dR]I-OH) | 0.78 | 40.8 | 93.7 | –
CC[C@H](C)[C@H](NC(=O)[C@H](CCCNC(=N)N)NC(=O)[C@H](COC(C)(C)C)NC(=O)[C@@H](NC(=O)[C@@H](N)CCCNC(=N)N)[C@@H](C)CC)C(=O)O [H-Arg-Ile-Ser(tBu)-Arg-Ile-OH] (H-RIS(tBu)RI-OH) | – | – | – | Urine ([2]; dose 1 mg/kg rat i.v. bolus): 1.19 mL/kg; K^+ ([2]; dose 1 mg/kg rat i.v. bolus): 28.4 µmol/kg; Na^+ ([2]; dose 1 mg/kg rat i.v. bolus): 74.5 µmol/kg
CC[C@H](C)[C@H](NC(=O)[C@@H](N)CCCNC(=N)N)C(=O)N[C@@H](COC(C)(C)C)C(=O)N[C@@H](CCCNC(=N)N)C(=O)N1CCC[C@H]1C(=O)OC(C)(C)C [H-Arg-Ile-Ser(tBu)-Arg-Pro-OtBu] (H-RIS(tBu)RP-OtBu) | 0.63 | 31.5 | 136.8 | –
CC[C@H](C)[C@H](NC(=O)[C@H](CCCNC(=N)N)NC(=O)[C@@H](CC(C)C)NC(=O)[C@H](NC(=O)[C@H](N)CCCNC(=N)N)[C@@H](C)CC)C(=O)O [H-D-Arg-D-allo-Ile-D-Leu-Arg-Ile-OH] (H-[dR][d(aIle)][dL]RI-OH) | 0.87 | 35.5 | 95.1 | –
CC[C@H](C)[C@H](NC(=O)[C@H](CCCNC(=N)N)NC(=O)[C@@H](CC(C)C)NC(=O)[C@@H](NC(=O)[C@H](N)CCCNC(=N)N)[C@@H](C)CC)C(=O)O [H-D-Arg-Ile-D-Leu-Arg-Ile-OH] (H-[dR]I[dL]RI-OH) | 1.13 | 49.7 | 115.9 | –
CC[C@H](C)[C@H](NC(=O)[C@H](CCCNC(=N)N)NC(=O)[C@H](CC(C)C)NC(=O)[C@@H](NC(=O)[C@H](N)CCCNC(=N)N)[C@@H](C)CC)C(=O)O [H-D-Arg-Ile-Leu-Arg-Ile-OH] (H-[dR]ILRI-OH) | 0.22 | 33.6 | 55.3 | –
CC[C@H](C)[C@H](NC(=O)[C@@H](CCCNC(=N)N)NC(=O)[C@H](CC(C)C)NC(=O)[C@@H](NC(=O)[C@H](N)CCCNC(=N)N)[C@@H](C)CC)C(=O)O [H-D-Arg-Ile-Leu-D-Arg-Ile-OH] (H-[dR]IL[dR]I-OH) | 0.28 | 33.9 | 61.4 | –
CC(C)C[C@H](NC(=O)[C@H](NC(=O)[C@H](CCCNC(=N)N)NC(=O)OCc1ccccc1)C(C)C)C(=O)N[C@@H](CCCNC(=N)N)C(=O)N[C@@H](C(=O)OCc1ccccc1)C(C)C [Z-Arg-D-Val-Leu-Arg-D-Val-OBzl] (Cbz-R[dV]LR[dV]-OBn) | 0.27 | 38.3 | 55.1 | –
CC[C@H](C)[C@H](NC(=O)[C@H](CCCNC(=N)N)NC(=O)OCc1ccccc1)C(=O)N[C@H](CC(C)C)C(=O)N[C@@H](CCCNC(=N)N)C(=O)N[C@@H](C(=O)OCc1ccccc1)C(C)C [Z-Arg-Ile-D-Leu-Arg-D-Val-OBzl] (Cbz-RI[dL]R[dV]-OBn) | 0.48 | 43.8 | 79.0 | –
CC[C@H](C)[C@H](NC(=O)[C@H](CCCNC(=N)N)NC(=O)OCc1ccccc1)C(=O)N[C@@H](CC(C)C)C(=O)N[C@@H](CCCNC(=N)N)C(=O)N[C@@H](C(=O)OCc1ccccc1)C(C)C [Z-Arg-Ile-Leu-Arg-D-Val-OBzl] (Cbz-RILR[dV]-OBn) | 0.43 | 36.7 | 88.6 | –
CC[C@H](C)[C@H](NC(=O)[C@H](CCCNC(=N)N)NC(=O)OCc1ccccc1)C(=O)N[C@@H](CC(C)C)C(=O)N[C@H](CCCNC(=N)N)C(=O)N[C@H](C(=O)OCc1ccccc1)[C@@H](C)CC [Z-Arg-Ile-Leu-D-Arg-Ile-OBzl] (Cbz-RIL[dR]I-OBn) | 0.52 | 36.2 | 66.9 | –
CC[C@H](C)[C@H](NC(=O)[C@H](CCCNC(=N)N)NC(=O)OCc1ccccc1)C(=O)N[C@@H](COC(C)(C)C)C(=O)N[C@@H](CCCNC(=N)N)C(=O)N1CCC[C@H]1C(=O)OC(C)(C)C [Z-Arg-Ile-Ser(tBu)-Arg-Pro-OtBu] (Cbz-RIS(tBu)RP-OtBu) | 0.44 | 37.8 | 88.9 | –

Molecule | Urine [1] [mL/kg] | K^+ [1] [µmol/kg] | Na^+ [1] [µmol/kg] | also measured
CC[C@H](C)[C@H](NC(=O)[C@H](CCCNC(=N)N)NC(=O)[C@H](Cc1c[nH]c2ccccc12)NC(=O)[C@@H](NC(=O)[C@H](CCCNC(=N)N)NC(=O)OCc1ccccc1)[C@@H](C)CC)C(=O)O [Z-Arg-Ile-Trp-Arg-Ile-OH] (Cbz-RIWRI-OH) | – | – | – | Urine ([2]; dose 1 mg/kg rat i.v. bolus): 1.64 mL/kg; K^+ ([2]; dose 1 mg/kg rat i.v. bolus): 37.1 µmol/kg; Na^+ ([2]; dose 1 mg/kg rat i.v. bolus): 208.6 µmol/kg
Cbz-RID(OtBu)RI-NH2 | – | – | – | Urine ([2]; dose 1 mg/kg rat i.v. bolus): 1.51 mL/kg; K^+ ([2]; dose 1 mg/kg rat i.v. bolus): 63.3 µmol/kg; Na^+ ([2]; dose 1 mg/kg rat i.v. bolus): 263.2 µmol/kg
Cbz-[dR]IL[dR]I-OBn | 0.29 | 30.1 | 48.4 | –
Cbz-[dR]I[dL]RI-OBn | 0.19 | 20.4 | 37.3 | –
H-KFLKF-NH2 [H-Lys-Phe-Leu-Lys-Phe-NH2] | 0.25 | 16.7 | 36.8 | –
H-KFLKF-OH [H-Lys-Phe-Leu-Lys-Phe-OH] | 0.52 | 31.0 | 80.2 | –
H-RID(OtBu)R[Leu(ol)] | – | – | – | Urine ([2]; dose 1 mg/kg rat i.v. bolus): 1.55 mL/kg; K^+ ([2]; dose 1 mg/kg rat i.v. bolus): 64.2 µmol/kg; Na^+ ([2]; dose 1 mg/kg rat i.v. bolus): 180.8 µmol/kg
H-RIFRI-OH [H-Arg-Ile-Phe-Arg-Ile-OH] | – | – | – | Urine ([2]; dose 1 mg/kg rat i.v. bolus): 2.00 mL/kg; K^+ ([2]; dose 1 mg/kg rat i.v. bolus): 68.3 µmol/kg; Na^+ ([2]; dose 1 mg/kg rat i.v. bolus): 211.0 µmol/kg
H-RILRI-OH [H-Arg-Ile-Leu-Arg-Ile-OH] | – | – | – | Urine ([2]; dose 1 mg/kg rat i.v. bolus): 2.03 mL/kg; K^+ ([2]; dose 1 mg/kg rat i.v. bolus): 50.1 µmol/kg; Na^+ ([2]; dose 1 mg/kg rat i.v. bolus): 149.8 µmol/kg
H-RIWRI-OH [H-Arg-Ile-Trp-Arg-Ile-OH] | – | – | – | Urine ([2]; dose 1 mg/kg rat i.v. bolus): 0.67 mL/kg; K^+ ([2]; dose 1 mg/kg rat i.v. bolus): 57.5 µmol/kg; Na^+ ([2]; dose 1 mg/kg rat i.v. bolus): 112.8 µmol/kg
H-RLQRL-OH [H-Arg-Leu-Gln-Arg-Leu-OH, H-Arg-Leu-Gln-Arg-Leu--OH] | 0.25 | 23.7 | 30.2 | –
H-RPVKV-OH [H-Arg-Pro-Val-Lys-Val-OH] | – | – | – | Urine ([2]; dose 1 mg/kg rat i.v. bolus): 0.91 mL/kg; K^+ ([2]; dose 1 mg/kg rat i.v. bolus): 28.2 µmol/kg; Na^+ ([2]; dose 1 mg/kg rat i.v. bolus): 155.7 µmol/kg; Type of action on diuresis, natriuresis and kaliuresis (in words) [2]: potassium-retaining natriuretics
Z-Arg-I-le-Glu(OtBu)-Arg-Ile-NH2 [Z-Arg-Ile-Glu(OtBu)-Arg-Ile-NH2] | 0.47 | 36.1 | 91.5 | –
Z-Arg-Ile-Asp(OtBu)-Arg-Ile-ol | – | – | – | Urine ([2]; dose 1 μg/kg i.v. bolus): 0.79 mL/kg; K^+ ([2]; dose 1 μg/kg i.v. bolus): 27.8 µmol/kg; Na^+ ([2]; dose 1 μg/kg i.v. bolus): 118.4 µmol/kg; Type of action on diuresis, natriuresis and kaliuresis (in words) [2]: antidiuretics with a natriuretic action
Z-D-Arg-Ile-Leu-Arg-Ile-OBzl ({code Z}-[dR]ILRI-OBn; reading uncertain; also: printed as Z-D-Arg-Ile-Leu-Arg-Ile-OBzl) | 0.59 | 38.1 | 86.3 | –
